Molecular target: T1, human LPA1 (Homo sapiens, UniProt Q92633)
T1 construct: expressed in transfected cells; host or cells: Chinese hamster ovary (CHO) cells
Assay: LPA1 functional antagonist assay (calcium flux)
Assay type: cell-based
Conditions: CHO cells overexpressing human LPA1; inhibition of calcium flux induced by 10 nM LPA; read-out: hLPA1 IC50
Method: The effectiveness of compounds of the present invention as LPA1 inhibitors can be determined in an LPA1 functional antagonist assay as follows:
Chinese hamster ovary cells overexpressing human LPA1 were plated overnight (15,000 cells/well) in poly-D-lysine coated 384-well microplates (Greiner bio-one, Cat #781946) in DMEM/F12 medium (Gibco, Cat #11039). Following overnight culture, cells were loaded with calcium indicator dye (AAT Bioquest Inc, Cat #34601) for 30 minutes at 37° C. The cells were then equilibrated to room temperature for 30 minutes before the assay. Test compounds solubilized in DMSO were transferred to 384 well non-binding surface plates (Corning, Cat #3575) using the Labcyte Echo acoustic dispense and diluted with assay buffer [1×HBSS with calcium/magnesium (Gibco Cat #14025-092), 20 mM HEPES (Gibco Cat #15630-080) and 0.1% fatty acid free BSA (Sigma Cat #A9205)] to a final concentration of 0.5% DMSO. Diluted compounds were added to the cells by FDSS6000 (Hamamatsu) at final concentrations ranging from 0.08 nM to 5 μM. and were then incubated for 20 min at room temperature at which time LPA (Avanti Polar Lipids Cat #857130C) was added at final concentrations of 10 nM to stimulate the cells. The compound IC50 value was defined as the concentration of test compound which inhibited 50% of the calcium flux induced by LPA alone. IC50 values were determined by fitting data to a 4-parameter logistic equation (GraphPad Prism, San Diego Calif.).

T1 sequence (Q92633 whole entry): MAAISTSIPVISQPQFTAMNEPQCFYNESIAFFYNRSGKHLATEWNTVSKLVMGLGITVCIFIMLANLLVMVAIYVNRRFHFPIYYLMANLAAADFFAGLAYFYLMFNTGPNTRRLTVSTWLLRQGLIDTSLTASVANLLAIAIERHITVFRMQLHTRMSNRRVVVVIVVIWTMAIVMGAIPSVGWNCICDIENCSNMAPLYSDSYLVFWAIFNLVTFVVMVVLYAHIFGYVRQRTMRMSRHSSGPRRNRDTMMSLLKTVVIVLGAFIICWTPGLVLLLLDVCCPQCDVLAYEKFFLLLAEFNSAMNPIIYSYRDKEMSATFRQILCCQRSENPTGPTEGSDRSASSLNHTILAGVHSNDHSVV

| Compound | IC50 [nM] |
| --- | --- |
| Cc1nc(-c2nnn(C)c2CNc2nccc(NCCc3ccccc3)n2)ccc1O[C@H]1CCC[C@H](C(=O)O)C1 [Example 63] | 86 |
| CCCNc1nc(NCc2c(-c3ccc(O[C@H]4CCC[C@H](C(=O)O)C4)c(C)n3)nnn2C)ncc1F [Example 64] | 46 |
| Cc1nc(-c2nnn(C)c2CNc2nccc(OCC(C)(C)C)n2)ccc1O[C@H]1CCC[C@H](C(=O)O)C1 [Example 65] | 36 |
| Cc1nc(-c2nnn(C)c2CNc2nccc(C3CCCC3)n2)ccc1O[C@H]1CCC[C@H](C(=O)O)C1 [Example 66] | 12 |
| [2H]C([2H])([2H])C([2H])(Oc1ccnc(NCc2c(-c3ccc(O[C@H]4CCC[C@H](C(=O)O)C4)c(C)n3)nnn2C)n1)C([2H])([2H])[2H] [Example 67] | 41 |
| CCOc1ccnc(NCc2c(-c3ccc(O[C@H]4CCC[C@H](C(=O)O)C4)c(C)n3)nnn2C)c1 [Example 68] | 132 |
| Cc1nc(-c2nnn(C)c2CNc2nccc(OCC(C)F)n2)ccc1O[C@H]1CCC[C@H](C(=O)O)C1 (stereo partly shown) [Example 69] | 54 |
| Cc1nc(-c2nnn(C)c2CNc2ncnc(N3CCCC3)n2)ccc1O[C@H]1CCC[C@H](C(=O)O)C1 [Example 70] | 319 |
| [2H]C([2H])([2H])C([2H])([2H])Oc1ccnc(NCc2c(-c3ccc(O[C@H]4CCC[C@H](C(=O)O)C4)c(C)n3)nnn2C)n1 [Example 71] | 13 |
| Cc1nc(-c2nnn(C)c2CNc2cc(OC(F)(F)F)ccn2)ccc1O[C@H]1CCC[C@H](C(=O)O)C1 [Example 72] | 57 |
| Cc1nc(-c2nnn(C)c2CNc2ccnc(OCC(F)F)n2)ccc1O[C@H]1CCC[C@H](C(=O)O)C1 [Example 73] | 133 |
| Cc1nc(-c2nnn(C)c2CNc2nccc(OCC3(C)COC3)n2)ccc1O[C@H]1CCC[C@H](C(=O)O)C1 [Example 74] | 130 |
| Cc1nc(-c2nnn(C)c2CNc2cc(OC(F)(F)F)ccn2)ccc1O[C@@H]1CCC[C@@H](C(=O)O)C1 [Example 75] | 413 |
| Cc1nc(-c2nnn(C)c2CNc2ncc(F)c(NCCc3ccc(Cl)cc3)n2)ccc1O[C@H]1CCC[C@H](C(=O)O)C1 [Example 76] | 44 |
| Cc1nc(-c2nnn(C)c2CNc2ccnc(OCC(C)(F)F)n2)ccc1O[C@H]1CCC[C@H](C(=O)O)C1 [Example 77] | 65 |
| Cc1nc(-c2nnn(C)c2CNc2nccc(OCC(C)(F)F)n2)ccc1O[C@H]1CCC[C@H](C(=O)O)C1 [Example 78] | 34 |
| Cc1nc(-c2nnn(C)c2CNc2nccc(OCC(F)F)n2)ccc1O[C@H]1CCC[C@H](C(=O)O)C1 [Example 79] | 80 |
| Cc1nc(-c2nnn(C)c2CNc2ncnc(Oc3ccccc3)n2)ccc1O[C@H]1CCC[C@H](C(=O)O)C1 [Example 80] | 135 |
| Cc1nc(-c2nnn(C)c2CNc2nccc(-c3cnccn3)n2)ccc1O[C@H]1CCC[C@H](C(=O)O)C1 [Example 81] | 92 |
| COCCOc1ccnc(NCc2c(-c3ccc(O[C@H]4CCC[C@H](C(=O)O)C4)c(C)n3)nnn2C)n1 [Example 82] | 122 |
| Cc1nc(-c2nnn(C)c2CNc2nccc(OC3CCOC3)n2)ccc1O[C@H]1CCC[C@H](C(=O)O)C1 (stereo partly shown) [Example 83] | 172 |

Now from value to compound:

| IC50 [nM] | Compound |
| --- | --- |
| 383 | Cc1nc(-c2nnn(C)c2CNc2nccc(Oc3ccc(Cl)nc3)n2)ccc1O[C@H]1CCC[C@H](C(=O)O)C1 [Example 84] |
| 109 | Cc1nc(-c2nnn(C)c2CNc2nccc(OC3CCCC3)n2)ccc1O[C@H]1CCC[C@H](C(=O)O)C1 [Example 85] |
| 91 | Cc1nc(-c2nnn(C)c2CNc2nccc(Oc3cccnc3)n2)ccc1O[C@H]1CCC[C@H](C(=O)O)C1 [Example 86] |
| 77 | COCCCCOc1ccnc(NCc2c(-c3ccc(O[C@H]4CCC[C@H](C(=O)O)C4)c(C)n3)nnn2C)n1 [Example 87] |
| 16 | CCSc1ccnc(NCc2c(-c3ccc(O[C@H]4CCC[C@H](C(=O)O)C4)c(C)n3)nnn2C)n1 [Example 88] |
| 77 | COCCCOc1ccnc(NCc2c(-c3ccc(O[C@H]4CCC[C@H](C(=O)O)C4)c(C)n3)nnn2C)n1 [Example 89] |
| 54 | Cc1nc(-c2nnn(C)c2CNc2nccc(OCC(F)(F)F)n2)ccc1O[C@H]1CCC[C@H](C(=O)O)C1 [Example 90] |
| 32 | Cc1nc(-c2nnn(C)c2CNc2nccc(OCC(F)(F)C(F)F)n2)ccc1O[C@H]1CCC[C@H](C(=O)O)C1 [Example 91] |
| 381 | Cc1nc(-c2nnn(C)c2CNc2ccnc(OCC(C)C)n2)ccc1O[C@H]1CCC[C@H](C(=O)O)C1 [Example 92] |
| 23 | Cc1nc(-c2nnn(C)c2CNc2nccc(OCC(C)C)n2)ccc1O[C@H]1CCC[C@H](C(=O)O)C1 [Example 93] |
| 241 | Cc1nc(-c2nnn(C)c2CNc2nccc(Oc3cccc(C#N)c3)n2)ccc1O[C@H]1CCC[C@H](C(=O)O)C1 [Example 94] |
| 1280 | Cc1nc(-c2nnn(C)c2CNc2nc(-c3cccs3)nc(-c3cccs3)n2)ccc1O[C@H]1CCC[C@H](C(=O)O)C1 [Example 95] |
| 16 | Cc1nc(-c2nnn(C)c2CNc2nccc(OC3CCC3)n2)ccc1O[C@H]1CCC[C@H](C(=O)O)C1 [Example 96] |
| 187 | CSc1ccnc(NCc2c(-c3ccc(O[C@H]4CCC[C@H](C(=O)O)C4)c(C)n3)nnn2C)n1 [Example 97] |
| 99 | Cc1nc(-c2nnn(C)c2CNc2ccnc(OC(C)C(F)(F)F)n2)ccc1O[C@H]1CCC[C@H](C(=O)O)C1 (stereo partly shown) [Example 98] |
| 244 | Cc1nc(-c2nnn(C)c2CNc2nccc(OC(C)C(F)(F)F)n2)ccc1O[C@H]1CCC[C@H](C(=O)O)C1 (stereo partly shown) [Example 99] |
| 85 | Cc1nc(-c2nnn(C)c2CNc2nccc(Oc3c(F)cc(F)cc3F)n2)ccc1O[C@H]1CCC[C@H](C(=O)O)C1 [Example 100] |
| 28 | Cc1nc(-c2nnn(C)c2CNc2nccc(Oc3ccc(F)c(F)c3)n2)ccc1O[C@H]1CCC[C@H](C(=O)O)C1 [Example 101] |
| 25 | Cc1nc(-c2nnn(C)c2CNc2nccc(OCCCF)n2)ccc1O[C@H]1CCC[C@H](C(=O)O)C1 [Example 102] |
| 33 | Cc1nc(-c2nnn(C)c2CNc2nccc(Oc3cc(F)ccc3F)n2)ccc1O[C@H]1CCC[C@H](C(=O)O)C1 [Example 103] |
| 27 | CCCOc1ccnc(NCc2c(-c3ccc(O[C@H]4CCC[C@H](C(=O)O)C4)c(C)n3)nnn2C)n1 [Example 104] |
| 22 | COc1cccc(Oc2ccnc(NCc3c(-c4ccc(O[C@H]5CCC[C@H](C(=O)O)C5)c(C)n4)nnn3C)n2)c1 [Example 105] |
| 226 | Cc1ccc(Oc2ccnc(NCc3c(-c4ccc(O[C@H]5CCC[C@H](C(=O)O)C5)c(C)n4)nnn3C)n2)cc1 [Example 106] |
| 54 | COc1ccc(Oc2ccnc(NCc3c(-c4ccc(O[C@H]5CCC[C@H](C(=O)O)C5)c(C)n4)nnn3C)n2)cc1 [Example 107] |
| 152 | Cc1cccc(Oc2ccnc(NCc3c(-c4ccc(O[C@H]5CCC[C@H](C(=O)O)C5)c(C)n4)nnn3C)n2)c1 [Example 108] |
| 17 | Cc1nc(-c2nnn(C)c2CNc2nccc(Oc3cccc(F)c3)n2)ccc1O[C@H]1CCC[C@H](C(=O)O)C1 [Example 109] |
| 22 | Cc1nc(-c2nnn(C)c2CNc2nccc(Oc3ccc(F)cc3)n2)ccc1O[C@H]1CCC[C@H](C(=O)O)C1 [Example 110] |
| 763 | Cc1nc(-c2nnn(C)c2CNc2nccc(-n3ccccc3=O)n2)ccc1O[C@H]1CCC[C@H](C(=O)O)C1 [Example 111] |

Reference: patent US11267800B2, “Cyclohexyl acid triazole azines as LPA antagonists” (BRISTOL-MYERS SQUIBB COMPANY, priority 2017, dated 2022)
